Laboratory results: paper PMC4505066, “Insights into the Recruitment of Class IIa Histone Deacetylases (HDACs) to the SMRT/NCoR Transcriptional Repression Complex” (The Journal of Biological Chemistry, 2015)
Where two headings read alike, the source gives them in different places. No end group written: not given here.

Key:
[1] = molecular target: T1, HDAC4 catalytic domain (wild type) (Homo sapiens, UniProt P56524); assay: Fluorescence anisotropy binding of BODIPY-TMR labeled GSI motif peptides to HDAC4
T1 construct: we purified the recombinant catalytic domains of HDACs 4, 5, 7, and 9; hexa-histidine tag (N, cleaved yes); S-tag (N, cleaved yes); made in house; host or cells: Escherichia coli Rosetta (pET30)
Protocol: Immediately prior to the fluorescence anisotropy assays the HDACs were concentrated and buffer exchanged into 1× PBS, 0.5 mM Tris(2-carboxyethyl)-phosphine and the protein concentration was determined by A280 in 6 M guanidine HCl. Protein was dispensed into 96-well black plates prior to a 2-fold serial dilution in reaction buffer (1× PBS, 0.01% Triton X-100, 0.1 mg/ml of BSA). Inhibitors were preincubated with HDACs for 30 min at a 2:1 ratio before serial dilution. Labeled peptide was added to a final concentration of 1 μM in a 50-μl reaction volume. […] Data were analyzed using GraphPad Prism, assuming non-linear fit with one-site binding to fulfill the equation y = Bmax × x/(Kd + x).

[2] = molecular target: T2, H976Y gain-of-function (GOF) HDAC4 catalytic domain (Homo sapiens, UniProt P56524, H976Y); assay: Fluorescence anisotropy binding of GSI peptide to H976Y gain-of-function HDAC4
T2 construct: the H976Y gain-of-function (GOF) HDAC4 catalytic domain; hexa-histidine tag (N, cleaved yes); S-tag (N, cleaved yes); made in house; host or cells: Escherichia coli Rosetta (pET30)
T2 sequence (P56524 655-1084 H976Y limits assumed): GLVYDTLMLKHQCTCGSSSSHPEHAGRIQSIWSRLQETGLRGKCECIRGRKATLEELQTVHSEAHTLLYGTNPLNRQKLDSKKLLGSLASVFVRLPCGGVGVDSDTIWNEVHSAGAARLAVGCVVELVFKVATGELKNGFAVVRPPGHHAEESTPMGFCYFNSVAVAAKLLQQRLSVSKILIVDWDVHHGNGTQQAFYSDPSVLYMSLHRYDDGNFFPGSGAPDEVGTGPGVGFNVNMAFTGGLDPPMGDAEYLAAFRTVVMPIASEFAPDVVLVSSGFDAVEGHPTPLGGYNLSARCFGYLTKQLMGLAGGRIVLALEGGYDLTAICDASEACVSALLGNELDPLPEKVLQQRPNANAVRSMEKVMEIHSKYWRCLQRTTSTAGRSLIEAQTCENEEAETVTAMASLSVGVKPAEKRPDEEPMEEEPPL
Protocol: Peptides were coupled to BODIPY-TMR by incubation in 18 MΩ water at a 5:1 molar ratio for 2 h at room temperature with continual stirring. Following incubation, buffer was exchanged into 1× PBS, 0.5 mM Tris(2-carboxyethyl)phosphine using a PD-10 column (GE Healthcare). Labeled peptides were concentrated using an Amicon centrifugal concentrator. Immediately prior to the fluorescence anisotropy assays the HDACs were concentrated and buffer exchanged into 1× PBS, 0.5 mM Tris(2-carboxyethyl)-phosphine and the protein concentration was determined by A280 in 6 M guanidine HCl. Protein was dispensed into 96-well black plates prior to a 2-fold serial dilution in reaction buffer (1× PBS, 0.01% Triton X-100, 0.1 mg/ml of BSA). Inhibitors were preincubated with HDACs for 30 min at a 2:1 ratio before serial dilution. Labeled peptide was added to a final concentration of 1 μM in a 50-μl reaction volume. […] Data were analyzed using GraphPad Prism, assuming non-linear fit with one-site binding to fulfill the equation y = Bmax × x/(Kd + x).

HDAC4cd C751A = molecular target: T3, HDAC4cd C751A (Homo sapiens, UniProt P56524, C751A); assay: Fluorescence anisotropy binding of GSI peptide to HDAC4 C751A mutant; conditions: Fig. 3C, zinc chelating residue mutant
T3 construct: we purified the recombinant catalytic domains of HDACs 4, 5, 7, and 9; hexa-histidine tag (N, cleaved yes); S-tag (N, cleaved yes); made in house; host or cells: Escherichia coli Rosetta (pET30)
Protocol: (§1) Peptides were coupled to BODIPY-TMR by incubation in 18 MΩ water at a 5:1 molar ratio for 2 h at room temperature with continual stirring. Following incubation, buffer was exchanged into 1× PBS, 0.5 mM Tris(2-carboxyethyl)phosphine using a PD-10 column (GE Healthcare). Labeled peptides were concentrated using an Amicon centrifugal concentrator. Immediately prior to the fluorescence anisotropy assays the HDACs were concentrated and buffer exchanged into 1× PBS, 0.5 mM Tris(2-carboxyethyl)-phosphine and the protein concentration was determined by A280 in 6 M guanidine HCl. Protein was dispensed into 96-well black plates prior to a 2-fold serial dilution in reaction buffer (1× PBS, 0.01% Triton X-100, 0.1 mg/ml of BSA). Inhibitors were preincubated with HDACs for 30 min at a 2:1 ratio before serial dilution. Labeled peptide was added to a final concentration of 1 μM in a 50-μl reaction volume. Measurements were recorded using an excitation wavelength of 531 nm and emission wavelength of 595 nm. Data were analyzed using GraphPad Prism, assuming non-linear fit with one-site binding to fulfill the equation y = Bmax × x/(Kd + x).

HDAC7 catalytic domain = molecular target: T4, HDAC7 catalytic domain (Homo sapiens, UniProt Q8WUI4); assay: Fluorescence anisotropy binding of labeled GSI peptide to HDAC7; conditions: Fig. 2B, labeled wild type peptide 1 μM
T4 construct: we purified the recombinant catalytic domains of HDACs 4, 5, 7, and 9; hexa-histidine tag (N, cleaved yes); S-tag (N, cleaved yes); made in house; host or cells: Escherichia coli Rosetta (as for HDAC4)
T4 sequence (Q8WUI4 512-865 limits assumed): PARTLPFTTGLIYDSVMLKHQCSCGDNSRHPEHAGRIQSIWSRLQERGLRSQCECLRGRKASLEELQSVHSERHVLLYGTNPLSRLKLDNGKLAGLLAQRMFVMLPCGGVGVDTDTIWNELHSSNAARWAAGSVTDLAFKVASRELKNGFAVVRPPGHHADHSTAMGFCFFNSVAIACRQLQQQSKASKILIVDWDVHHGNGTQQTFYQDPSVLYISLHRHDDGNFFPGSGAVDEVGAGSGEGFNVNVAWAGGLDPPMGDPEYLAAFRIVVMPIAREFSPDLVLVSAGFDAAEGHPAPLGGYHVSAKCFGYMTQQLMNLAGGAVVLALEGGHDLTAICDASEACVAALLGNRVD
Protocol: (§2) Wild type peptide was obtained from Biomatik. Mutant peptides were synthesized in house using a CEM microwave peptide synthesizer. Peptides for use in fluorescence anisotropy assays were synthesized with an extra N-terminal cysteine.
as §1

HDAC9 catalytic domain = molecular target: T5, HDAC9 catalytic domain (Homo sapiens, UniProt Q9UKV0); assay: Fluorescence anisotropy binding of labeled GSI peptide to HDAC9; conditions: Fig. 2B, labeled wild type peptide 1 μM
T5 construct: we purified the recombinant catalytic domains of HDACs 4, 5, 7, and 9; hexa-histidine tag (N, cleaved yes); S-tag (N, cleaved yes); made in house; host or cells: Escherichia coli Rosetta (as for HDAC4)
Protocol: as §2, §1

full-length HDAC8 = molecular target: T6, full-length HDAC8 (Homo sapiens, UniProt Q9BY41); assay: Fluorescence anisotropy binding of labeled GSI peptide to HDAC8; conditions: Fig. 2B, class I HDAC8 control, labeled wild type peptide 1 μM
T6 construct: along with full-length HDAC8 as an intrinsically active class I HDAC control; made in house
T6 sequence (Q9BY41 1-377): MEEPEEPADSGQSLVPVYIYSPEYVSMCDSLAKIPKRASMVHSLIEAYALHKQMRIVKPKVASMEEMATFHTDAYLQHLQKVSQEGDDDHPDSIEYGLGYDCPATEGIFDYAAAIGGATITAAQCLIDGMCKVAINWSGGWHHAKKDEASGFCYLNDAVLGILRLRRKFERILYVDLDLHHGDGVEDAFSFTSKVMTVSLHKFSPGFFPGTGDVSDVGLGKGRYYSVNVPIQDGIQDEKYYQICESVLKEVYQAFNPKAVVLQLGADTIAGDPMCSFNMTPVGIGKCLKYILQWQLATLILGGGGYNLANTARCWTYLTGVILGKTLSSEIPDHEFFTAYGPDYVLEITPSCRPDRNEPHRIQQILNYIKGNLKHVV
Protocol: as §2, §1

HDAC5 catalytic domain = molecular target: T7, HDAC5 catalytic domain (Homo sapiens, UniProt Q9UQL6); assay: Fluorescence anisotropy binding of labeled GSI peptide to HDAC5; conditions: Fig. 2B, labeled wild type peptide 1 μM
T7 construct: we purified the recombinant catalytic domains of HDACs 4, 5, 7, and 9; hexa-histidine tag (N, cleaved yes); S-tag (N, cleaved yes); made in house; host or cells: Escherichia coli Rosetta (as for HDAC4)
Protocol: as §2, §1

HDAC4cd H675A = molecular target: T8, HDAC4cd H675A (Homo sapiens, UniProt P56524, H675A); assay: Fluorescence anisotropy binding of GSI peptide to HDAC4 H675A mutant; conditions: Fig. 3C, zinc chelating residue mutant
T8 construct: we purified the recombinant catalytic domains of HDACs 4, 5, 7, and 9; hexa-histidine tag (N, cleaved yes); S-tag (N, cleaved yes); made in house; host or cells: Escherichia coli Rosetta (pET30)
Protocol: as §1

HDAC4cd C667A = molecular target: T9, HDAC4cd C667A (Homo sapiens, UniProt P56524, C667A); assay: Fluorescence anisotropy binding of GSI peptide to HDAC4 C667A mutant; conditions: Fig. 3C, zinc chelating residue mutant
T9 construct: we purified the recombinant catalytic domains of HDACs 4, 5, 7, and 9; hexa-histidine tag (N, cleaved yes); S-tag (N, cleaved yes); made in house; host or cells: Escherichia coli Rosetta (pET30)
Protocol: as §1

[3] = Fig. 2A, fluorescence anisotropy, BODIPY-TMR labeled peptide 1 μM, HDAC4 2-fold serial dilution, one-site binding fit, read-out: Kd

T1 sequence (P56524 655-1084 limits assumed): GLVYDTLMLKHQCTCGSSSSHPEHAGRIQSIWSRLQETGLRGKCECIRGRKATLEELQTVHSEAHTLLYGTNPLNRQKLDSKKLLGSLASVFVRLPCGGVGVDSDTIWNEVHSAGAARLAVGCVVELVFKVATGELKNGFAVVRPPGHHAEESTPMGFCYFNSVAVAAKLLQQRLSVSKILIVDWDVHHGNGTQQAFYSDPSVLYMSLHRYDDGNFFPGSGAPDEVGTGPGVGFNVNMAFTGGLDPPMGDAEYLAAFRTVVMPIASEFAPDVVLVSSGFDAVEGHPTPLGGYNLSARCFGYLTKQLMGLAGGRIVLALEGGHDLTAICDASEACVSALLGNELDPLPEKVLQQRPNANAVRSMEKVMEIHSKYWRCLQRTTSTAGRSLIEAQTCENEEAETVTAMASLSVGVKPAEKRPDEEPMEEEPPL
T5 sequence (Q9UKV0 631-978 limits assumed, species assumed): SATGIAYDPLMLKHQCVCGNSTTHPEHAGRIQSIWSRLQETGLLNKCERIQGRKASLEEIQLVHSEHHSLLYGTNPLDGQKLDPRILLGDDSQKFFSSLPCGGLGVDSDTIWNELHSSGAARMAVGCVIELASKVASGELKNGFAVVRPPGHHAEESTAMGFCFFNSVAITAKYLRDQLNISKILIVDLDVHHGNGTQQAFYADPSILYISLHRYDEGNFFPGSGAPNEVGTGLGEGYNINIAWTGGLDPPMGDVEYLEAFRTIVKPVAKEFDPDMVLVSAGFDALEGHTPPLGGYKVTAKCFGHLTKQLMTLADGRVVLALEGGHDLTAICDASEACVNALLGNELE
T9 sequence (P56524 655-1084 C667A limits assumed): as the sequence (P56524 655-1084 limits assumed) above, with C13A counted along it
T3 sequence (P56524 655-1084 C751A limits assumed): as the sequence (P56524 655-1084 limits assumed) above, with C97A counted along it
T7 sequence (Q9UQL6 684-1028 limits assumed, species assumed): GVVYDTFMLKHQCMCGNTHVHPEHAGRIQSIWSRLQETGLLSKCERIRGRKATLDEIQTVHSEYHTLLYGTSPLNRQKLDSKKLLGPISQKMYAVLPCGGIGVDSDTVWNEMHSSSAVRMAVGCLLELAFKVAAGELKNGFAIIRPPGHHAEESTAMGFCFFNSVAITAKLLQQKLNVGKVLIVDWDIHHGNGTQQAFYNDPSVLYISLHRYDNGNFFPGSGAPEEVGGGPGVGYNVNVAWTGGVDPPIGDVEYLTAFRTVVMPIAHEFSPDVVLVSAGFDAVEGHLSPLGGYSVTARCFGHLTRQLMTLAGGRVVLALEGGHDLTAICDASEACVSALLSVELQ
T8 sequence (P56524 655-1084 H675A limits assumed): as the sequence (P56524 655-1084 limits assumed) above, with H21A counted along it

O=C(CCCCCCC(=O)Nc1ccccc1)NO [SAHA, suberoylanilide hydroxamic acid, reference compound] was tested. Which “maximum polarization of GSI peptide binding in the presence of inhibitor” value ([1]; wild type HDAC4, 2-fold molar excess of inhibitor) did it give?
Its value is “lower maximum polarization”.

What does the source list for CCCC(=O)[O-].[Na+] [Sodium Butyrate, sodium butyrate, reference compound]?
Kd ([1]; Fig. 4A, wild type HDAC4 catalytic domain preincubated 30 min with 2-fold molar excess of the named inhibitor, Kd is that of the labeled GSI peptide, read-out: WT Kd of the GSI peptide in the presence of the HDAC inhibitor): 4.61 ± 0.26 µM; Kd ([2]; Fig. 4A, H976Y GOF HDAC4 catalytic domain preincubated 30 min with 2-fold molar excess of the named inhibitor, Kd is that of the labeled GSI peptide, read-out: GOF Kd of the GSI peptide in the presence of the HDAC inhibitor): 2.53 ± 0.24 µM

Which Kd ([1]; read-out: WT Kd of the GSI peptide in the presence of the HDAC inhibitor) does the source give for CCCC(CCC)C(=O)O [Valproic Acid, valproic acid, reference compound] here?
The Kd was 3.38 ± 0.24 µM.

What about the Kd ([2]; read-out: GOF Kd of the GSI peptide in the presence of the HDAC inhibitor) of the same molecule?
The Kd was 2.62 ± 0.18 µM.

With CC[C@H](C)[C@H](NC(=O)[C@H](CO)NC(=O)CNC(=O)[C@H](CCC(=O)O)NC(=O)[C@H](CCCCN)NC(=O)[C@H](CC(C)C)NC(=O)[C@@H]1CCCN1C(=O)[C@H](CCCNC(=N)N)NC(=O)[C@@H]1CCCN1C(=O)[C@@H](N)CS)C(=O)N[C@H](C(=O)N[C@@H](CCC(N)=O)C(=O)NCC(=O)N[C@H](C(=O)N1CCC[C@H]1C(=O)N[C@@H](CC(C)C)C(=O)N[C@@H](CCCCN)C(=O)N[C@@H](Cc1ccc(O)cc1)C(=O)N[C@@H](CC(=O)O)C(=O)N[C@H](C(=O)NCC(=O)O)[C@@H](C)O)[C@@H](C)O)[C@@H](C)O [WT] as the molecule, how does the Kd (HDAC4cd C751A) read?
The Kd was over 1000 µM.

What about the Kd (HDAC7 catalytic domain) of the same molecule?
The Kd was 4.44 ± 0.44 µM.

And the Kd (HDAC9 catalytic domain)?
The Kd was 8.34 ± 1.07 µM.

What about the Kd (full-length HDAC8) of the same molecule?
Its Kd is “no interaction”.

And the Kd (full-length HDAC8; read-out: Kd)?
The Kd was over 1000 µM.

What about the Kd (HDAC5 catalytic domain) of the same molecule?
The Kd was 4.24 ± 0.59 µM.

And the Kd (HDAC4cd H675A)?
Its Kd is over 1000 µM.

What about the Kd ([1]; Fig. 4A, wild type HDAC4 catalytic domain, DMSO, read-out: WT Kd) of the same molecule?
Its Kd is 3.22 ± 0.2 µM.

And the Kd ([1]; Fig. 4A, wild type HDAC4 catalytic domain, No Inhibitor, read-out: WT Kd)?
Its Kd is 4.73 ± 0.31 µM.

And the Kd ([2]; Fig. 4A, H976Y GOF HDAC4 catalytic domain, DMSO, read-out: GOF Kd)?
The Kd was 2.94 ± 0.15 µM.

What about the Kd ([2]; Fig. 4A, H976Y GOF HDAC4 catalytic domain, No Inhibitor, read-out: GOF Kd) of the same molecule?
The Kd was 1.76 ± 0.18 µM.

What about the Kd (HDAC4cd C667A) of the same molecule?
The Kd was over 1000 µM.

CPRPLKEGSIAQGTPLKYDTG [T4A] was tested. Which Kd [1, 3] did it give?
Its Kd is 14.4 ± 4.26 µM.

For CPRPLKEGSITAGTPLKYDTG [Q5A], which Kd [1, 3] is on record?
Its Kd is 5.47 ± 0.57 µM.

How did the Kd [1, 3] turn out when CPRPLKEGSITEGTPLKYDTG [Q5E] was run?
Its Kd is 17.7 ± 1.4 µM.

Which Kd [1, 3] does the source give for CPRPLKEGSITQGTALKYDTG [P8A] here?
The Kd was 47 ± 12.3 µM.

For CPRPLKEGSIVQGTPLKYDTG [T4V], which Kd [1, 3] is on record?
Its Kd is 16.9 ± 8.73 µM.
